According to BindingDB's records for doi:10.1021/acsmedchemlett.5b00489 (Peking Union Medical College, 2016):

Assay: Antagonist activity at human recombinant CXCR2 assessed as inhibition of CXCL1-induced neutrophil chemotaxis after 45 mins by calcein-AM dye based plate reader method

Structure (SMILES) | IC50 [nM]
CN1CCC(S(=O)(=O)c2c(Cl)ccc(NC(=O)Nc3cccc(Cl)c3Cl)c2O)CC1 | 158
CN1CCC(S(=O)(=O)c2c(Cl)ccc(NC(=O)Nc3cccc(F)c3Cl)c2O)CC1 | 25
CCN1CCC(S(=O)(=O)c2c(Cl)ccc(NC(=O)Nc3cccc(F)c3Cl)c2O)CC1 | 158
CN1CC[C@H](S(=O)(=O)c2c(Cl)ccc(NC(=O)Nc3cccc(Cl)c3Cl)c2O)C1 | 251
NS(=O)(=O)c1c(Cl)ccc(NC(=O)Nc2cccc(Cl)c2Cl)c1O | 316
O=C(Nc1ccc(Cl)c(S(=O)(=O)N2CCNCC2)c1O)Nc1cccc(Cl)c1Cl | 10000
CN1CCN(S(=O)(=O)c2c(Cl)ccc(NC(=O)Nc3cccc(Cl)c3Cl)c2O)CC1 | 1000
CN1CCN(S(=O)(=O)c2c(Cl)ccc(NC(=O)Nc3cccc(F)c3Cl)c2O)CC1 | 316
CCN1CCN(S(=O)(=O)c2c(Cl)ccc(NC(=O)Nc3cccc(F)c3Cl)c2O)CC1 | 2000
CC(C)N1CCN(S(=O)(=O)c2c(Cl)ccc(NC(=O)Nc3cccc(F)c3Cl)c2O)CC1 | 2000
C[C@@H]1CN(S(=O)(=O)c2c(Cl)ccc(NC(=O)Nc3cccc(F)c3Cl)c2O)C[C@H](C)O1 | 3160
C[C@@H]1CN(S(=O)(=O)c2c(Cl)ccc(NC(=O)Nc3cccc(Cl)c3Cl)c2O)C[C@H](C)O1 | 15800
CCS(=O)(=O)c1c(Cl)ccc(NC(=O)Nc2cccc(Cl)c2Cl)c1O | 6310
CC(C)S(=O)(=O)c1c(Cl)ccc(NC(=O)Nc2cccc(F)c2Cl)c1O | 10
CC(C)S(=O)(=O)c1c(Cl)ccc(NC(=O)Nc2cccc(Cl)c2Cl)c1O | 158
CC(C)(C)S(=O)(=O)c1c(Cl)ccc(NC(=O)Nc2cccc(F)c2Cl)c1O | 40
O=C(Nc1ccc(Cl)c(S(=O)(=O)C2CCC2)c1O)Nc1cccc(F)c1Cl | 13
O=C(Nc1ccc(Cl)c(S(=O)(=O)C2CCCC2)c1O)Nc1cccc(F)c1Cl | 25
O=C(Nc1ccc(Cl)c(S(=O)(=O)C2CCCCC2)c1O)Nc1cccc(F)c1Cl | 79
O=C(Nc1ccc(Cl)c(S(=O)(=O)C2CCOC2)c1O)Nc1cccc(Cl)c1Cl (configuration not stated) | 7.9
O=C(Nc1ccc(Cl)c(S(=O)(=O)C2CCOCC2)c1O)Nc1cccc(Cl)c1Cl | 6.3
CN1CC[C@H](S(=O)(=O)c2c(Cl)ccc(NC(=O)Nc3cccc(F)c3Cl)c2O)C1 | 79
CN1CCC[C@H](S(=O)(=O)c2c(Cl)ccc(NC(=O)Nc3cccc(F)c3Cl)c2O)CC1 | 100
CN1CC2(CC(S(=O)(=O)c3c(Cl)ccc(NC(=O)Nc4cccc(F)c4Cl)c3O)C2)C1 | 631
CN1CCC2(CCC(S(=O)(=O)c3c(Cl)ccc(NC(=O)Nc4cccc(F)c4Cl)c3O)CC2)CC1 | 25
O=C(Nc1ccc(Cl)c(C(=O)N2CCCC2)c1O)Nc1cccc(F)c1Cl | 7.9
O=C(Nc1ccc(Cl)c(C(=O)N2CCCCC2)c1O)Nc1cccc(F)c1Cl | 6.3
